Columns and labels:
Format in all cases: cell-based
[1] = test system: K. pneumoniae expressing the Class A carbapenemase KPC-3; test: broth microdilution MIC assay, K. pneumoniae KPC-3; settings: Klebsiella pneumoniae, read-out: MIC alone
Text: (§1) To determine the ability of test compounds to potentiate the inhibition of the growth of bacterial strains that produce beta-lactamase enzymes, classic cell based broth microdilution MIC assays are employed. Six bacteria strains producing beta-lactamase enzymes are used: E. coli expressing the Class A Extended Spectrum Beta-Lactamase (ESBL) CTX-M-15, E. cloacae expressing the Class C P99, K. pneumoniae expressing the Class A carbapenemase KPC-3, P. aeruginosa expressing the Class B carbapenemase VIM-2, K. pneumoniae expressing the class A carbapenemase KPC-2 and the class B carbapenemase VIM-4, and S. aureus producing the Class A penicillinase PC-1. The assay is conducted in Cation Adjusted Mueller Hinton Broth (CAMHB, BD #212322, BD Diagnostic Systems, Sparks, Md.). Bacteria strains are grown for 3-5 hours in CAMBH broth. Test compounds are added to a microtiter plate in 2-fold serial dilutions in CAMHB in a final concentration range of 32 μg/mL to 0.25 μg/ml. An overlay of CAMHB containing a Beta-lactam is added to the compounds at a final static concentration of 4 μg/mL. […] After inoculation the plates are incubated for 16-20 hours at 37° C. then the Minimal Inhibitory Concentration (MIC) of the test compound is determined visually.

[2] = test system: P. aeruginosa expressing the Class B carbapenemase VIM-2; test: broth microdilution MIC assay, P. aeruginosa VIM-2; settings: Pseudomonas aeruginosa, read-out: MIC alone
Text: as §1

[3] = test system: K. pneumoniae expressing the class A carbapenemase KPC-2 and the class B carbapenemase VIM-4; test: broth microdilution MIC assay, K. pneumoniae KPC-2 and VIM-4; settings: Klebsiella pneumoniae; partner antibiotic alone, no inhibitor; K. pneumoniae expressing KPC-2 and VIM-4; CAMHB
Text: as §1

[4] = test system: E. cloacae expressing the Class C P99; test: broth microdilution MIC assay, E. cloacae P99; settings: Enterobacter cloacae, read-out: MIC alone
Text: as §1

[5] = test system: E. coli expressing the Class A Extended Spectrum Beta-Lactamase (ESBL) CTX-M-15; test: broth microdilution MIC assay, E. coli CTX-M-15; settings: Escherichia coli, read-out: MIC alone
Text: as §1

[6] = test system: S. aureus producing the Class A penicillinase PC-1; test: broth microdilution MIC assay, S. aureus PC-1; settings: Staphylococcus aureus; partner antibiotic alone, no inhibitor; S. aureus producing Class A penicillinase PC-1; CAMHB
Text: as §1

Compound C[C@@H](O)[C@H]1C(=O)N2C(C(=O)O)=C(S[C@@H]3CN[C@H](C(=O)N(C)C)C3)[C@H](C)[C@H]12 [Meropenem] has an MIC [1] greater than 128 µg/mL, an MIC [2] of 16 µg/mL and an MIC [3] of 64 µg/mL.

CC(C)(O/N=C(\C(=O)N[C@@H]1C(=O)N2C(C(=O)[O-])=C(C[n+]3ccccc3)CS[C@H]12)c1csc(N)n1)C(=O)O [Ceftazidime] showed an MIC [4] of 128 µg/mL and an MIC [5] greater than 128 µg/mL.

CCN1CCN(C(=O)N[C@@H](C(=O)N[C@@H]2C(=O)N3[C@@H]2SC(C)(C)[C@@H]3C(=O)O)c2ccccc2)C(=O)C1=O [Piperacillin] showed an MIC [6] of 64 µg/mL.

Reference: patent publication US10294247B2, “Beta-lactamase inhibitors” (VenatoRx Pharmaceuticals, Inc., priority 2014, dated 2019)
